Paper PMC6571673, “Cytostatic and Cytotoxic Natural Products against Cancer Cell Models” (Molecules, 2019)

Test system: MDA-MB-231
Assay: Co-localization of probe with organelle trackers, live cell imaging
Type: cell-based, human
Settings: live cells, 2 µM
Text: It is important to determine the intracellular accumulation of compound 9 as this may aid in identifying its intracellular interactions. To facilitate these experiments, a series of orthogonal fluorescent organelle markers were used for co-localization studies. The organelle marker set included indicators for the lysosome (Lysotracker Red), the mitochondria (MitoTracker Deep Red), and the endoplasmic reticulum (ER tracker Blue/White). Where applicable, nuclei were stained with Hoechst (Blue). All these markers were compatible with BODIPY-FL (green) to allow for flexible combinations. […] First, to evaluate the accumulation of compound 9a after 30 min treatment at 1 µM, washout experiments were conducted as shown in Figure 7A in the presence of Hoechst nuclear stain. Distinct green specks were observed near the nucleus of the cell.
Co-localization studies were conducted in 8-well chambered coverslips (ibidi GmbH µ-slide # 80826) for MDA-MB-231. Coverslips were first coated with 0.1% Gelatin for 30 min for better cell adherence. Cells were then plated in phenol red free medium at a density of 4 × 10^4 cells per well and incubated at 37 °C overnight. […]

COC1=CC23CCCN2CCc2cc4c(cc2C3C1OC(=O)CCC1=[N+]2C(=Cc3c(C)cc(C)n3[B-]2(F)F)C=C1)OCO4 (stereo not shown) [9a]
co-localization with endoplasmic reticulum (ER-Tracker Blue/White): Co-localization of probe 9a with ER-Tracker Blue/White
